# Where “and” joins values, the source holds several entries; their conditions need not be identical. Identical values can stand only once.
# Key:
# [1] = Enthalpy (heat) of fusion from DSC data; type: physicochemical; details: for Heat of fusion (ΔH), single analyses / Heat of fusion (ΔH), average: DSC 50° C./min; for Heat of fusion (ΔH), average: average of three
# Experimental: In Table 4, for Form I, the 26.4 kJ/mol value for the enthalpy of fusion was calculated from a single 10° C./min pattern whereas the 25.6 kJ/mol value was calculated as an average from three 50° C./min patterns. DSC results for Form III indicated a melt onset at 76° C., while HSM results indicated it was 81° C. Material decomposition was observed upon heating above approximately 170° C. The minor weight loss observed up to 150° C. was attributed to loss of residual solvent. FIG. 1 is a DSC stack plot for Forms I-V of Pterostilbene. Differential Scanning Calorimetry (DSC) analyses were performed using a TA Instruments (New Castle, Del.) Q2000 differential scanning calorimeter, equipped with a refrigerated cooling system (RCS). Temperature calibration was performed using NIST traceable indium metal. The sample was placed into an aluminum DSC pan, and the weight was accurately recorded. The pan was covered with a lid perforated with a laser pinhole, and the lid was hermetically sealed. A weighed, crimped aluminum pan was placed on the reference side of the cell. The sample cell was equilibrated at sub-ambient temperature and heated under a nitrogen purge at a rate of 10° C./minute. Higher and lower heating rates were also investigated (from 1 to 300° C./min). Alternatively, data were obtained using a modulation amplitude of +/−0.8° C. and a 60 second period with an underlying heating rate of 2° C./min from −50 to 150° C. The reported glass transition temperatures are obtained from the inflection of the step change in the reversible heat flow versus temperature curve. Thermodynamic stability relationships of various forms of Pterostilbene were studied by calculating the heat of fusion for each form (from DSC data, see table 4) and through slurry interconversion experiments in toluene. Heat of fusion (ΔH) for Form I was determined (from […] DSC data) to be approximately 100 J/g or 25.6 kJ/mol. […] Heat of fusion for Form II was determined (from 10° C./min DSC data) to be approximately 92 J/g or 23.6 kJ/mol. […] Heat of fusion for Form III was estimated (from 50° C./min DSC data) to be approximately 75 J/g or 19.2 kJ/mol.
# [2] = Thermogravimetric (TG) analysis; type: physicochemical; details: TGA, up to 150° C., attributed to residual solvent
# Experimental: In Table 4, for Form I, the 26.4 kJ/mol value for the enthalpy of fusion was calculated from a single 10° C./min pattern whereas the 25.6 kJ/mol value was calculated as an average from three 50° C./min patterns. DSC results for Form III indicated a melt onset at 76° C., while HSM results indicated it was 81° C. Material decomposition was observed upon heating above approximately 170° C. The minor weight loss observed up to 150° C. was attributed to loss of residual solvent. FIG. 1 is a DSC stack plot for Forms I-V of Pterostilbene.
# Thermogravimetric (TG) analyses were performed using a TA Instruments Q5000 IR thermogravimetric analyzer. Temperature calibration was performed using nickel and Alumel. Each sample was placed in an aluminum pan. The pan was hermetically sealed with a lid that was opened using a punching mechanism just before being inserted into the TG furnace. The furnace was heated under nitrogen at a rate of 10° C./minute.
# [3] = Water vapor adsorption/desorption (WVS); type: physicochemical; details: for Sorption (5-95-5% RH): adsorption 5 to 95% RH; for Desorption (5-95-5% RH): desorption 95 to 5% RH
# Experimental: Water vapor adsorption/desorption (WVS) data were collected on a VTI SGA-100 Vapor Sorption Analyzer. NaCl and PVP were used as calibration standards. Samples were not dried prior to analysis. Adsorption and desorption data were collected over a range from 5 to 95% RH at 10% RH increments under a nitrogen purge. The equilibrium criterion used for analysis was less than 0.0100% weight change in 5 minutes with a maximum equilibration time of 3 hours if the weight criterion was not met. Data were not corrected for the initial moisture content of the samples.
# [4] = Intrinsic dissolution rate in water; type: physicochemical
# Experimental: The polymorphs of Pterostilbene described herein can also be characterized by their respective dissolution rates. […] (open symbols) and 37° C. (filled symbols). […] UV-VIS spectrophotometry: samples were analyzed using a SpectraMax M2 Microplate Reader. Wavelength calibration and photometric accuracy was performed using the SpectraMax […] software as an internal calibration of the instrument. The instrument was blanked with an empty quartz glass plate. Samples were analyzed in the UV range at ambient temperature in the wells of a 96-well quartz plate. The absorbance spectra of water was collected and subtracted from the spectra of the drug solutions to calculate concentrations. Samples were performed in duplicate and absorbance data was averaged. The standard curve was determined based on absorbance at 310 nm.
# [5] = Stress conditions, stability of Pterostilbene Form II; type: physicochemical
# Description: Stress conditions were employed to evaluate the stability of Pterostilbene Form II. […] Ambient and elevated temperature water slurry experiments starting with Form II material were set up in an effort to produce a hydrate of Pterostilbene.
# [6] = Slurry interconversion experiments in toluene (XRPD of recovered solids); type: physicochemical; details: from enthalpy of fusion, melting point and slurry interconversion in toluene
# Experimental: Thermodynamic stability relationships of known forms of Pterostilbene were studied by calculating the enthalpy of fusion for each form (from DSC data, Table 4) and through slurry interconversion experiments in toluene in Table 1.
# Saturated solutions of Pterostilbene were prepared at ambient temperature in toluene. The solutions were filtered and seeds of each form were added. The samples were agitated for days and the solids recovered by vacuum filtration. The solids were collected and allowed to dry under ambient conditions.
# [7] = cited from earlier work
# [8] = cited from earlier work; remark: listed apart in the source
# [9] = Physical stability of amorphous Pterostilbene under ambient conditions; type: physicochemical
# Description: FIG. 9 is the x-ray diffraction pattern of x-ray amorphous Pterostilbene. By use the term “x-ray amorphous” what is meant is a material whose powder x-ray powder diffraction pattern is consistent with an amorphous “halo” as that term is understood in the art. By inspection, one of ordinary skill in the art would recognize that the pattern in FIG. 9 does represents a material without any significant crystallinity. However, the material may be nanocrystalline or some other disordered solid. The glass transition temperature of amorphous Pterostilbene was experimentally determined (by modulated DSC) to be approximately 4° C.
# [10] = DSC 50° C./min (average of three for Forms I and II)
structure (smiles),measurement,setting,value
COc1cc(/C=C/c2ccc(O)cc2)cc(OC)c1 [Form III],"Heat of fusion (ΔH), single analyses",[1],approximately 75 J/g
same,Enthalpy of fusion,[1]; [10],~4.59 kcal/mol
same,Enthalpy of fusion,"[1]; DSC 50° C./min (average of three for Forms I and II), listed as III",4.59 kcal/mol
same,% weight loss (at 150° C.),[2],0.2%
same,Sorption (5-95-5% RH),[3],0.6 weight %
same,Desorption (5-95-5% RH),[3],0.5 weight %
COc1cc(/C=C/c2ccc(O)cc2)cc(OC)c1 [Form II],Intrinsic dissolution rate,[4]; 25° C.,0.90 ± 0.03 μg/cm^−2/min
same,Intrinsic dissolution rate,[4]; 37° C.,2.35 ± 0.08 μg/cm^−2/min
same,Enthalpy of fusion,[1]; DSC 10° C./min,~5.64 kcal/mol
same,Heat of fusion (ΔH),[1]; DSC 10° C./min,approximately 92 J/g
same,Enthalpy of fusion,"[1]; DSC 10° C./min, listed as II",5.64 kcal/mol
same,"Heat of fusion (ΔH), single analyses",[1],100 J/g and 91 J/g and 92 J/g
same,Enthalpy of fusion,[1]; [10],5.78 kcal/mol
same,Enthalpy of fusion,"[1]; DSC 50° C./min (average of three for Forms I and II), listed as II",5.78 kcal/mol
same,"Heat of fusion (ΔH), average",[1],94 J/g
same,% weight loss (at 150° C.),[2],0.2%
same,Organic vapor stress,[5],structurally unchanged
same,Heat stress,[5]; 80° C. for 3 days,conversion to Form I
same,Chemical stability on ambient exposure,"[5]; ambient (air, but not light) exposure, 34 days",chemically unchanged
same,Structural stability on ambient exposure,"[5]; ambient (air, but not light) exposure, 70 days",structurally unchanged
same,Hydrate formation in water slurry,[5]; ambient and elevated temperature water slurry,No hydrate was observed
same,Moderate humidity stress,[5]; ambient and elevated temperatures,did not result in deliquescence
same,Resulting material of water slurry,[5]; ambient temperature,Form II
same,Resulting material of water slurry,[5]; elevated temperature,Form I
same,Sorption (5-95-5% RH),[3],0.2/0.2 weight %
same,Desorption (5-95-5% RH),[3],0.2/0.2 weight %
same,Thermodynamic stability relationship of forms,[6],thermodynamically favored compared to Forms III-V
COc1cc(/C=C/c2ccc(O)cc2)cc(OC)c1 [Form IV],% weight loss (at 150° C.),[2]; listed as IV,0.2%
same,Sorption (5-95-5% RH),[3]; listed as IV,0.5/0.5 weight %
same,Desorption (5-95-5% RH),[3]; listed as IV,0.5/0.5 weight %
COc1cc(/C=C/c2ccc(O)cc2)cc(OC)c1 [Form I],Intrinsic dissolution rate,[4]; 25° C.,0.83 ± 0.06 μg/cm^−2/min
same,Intrinsic dissolution rate,[4]; 37° C.,2.05 ± 0.03 μg/cm^−2/min
same,Enthalpy of fusion,[1]; DSC 10° C./min,~6.12 kcal/mol and 6.31 kcal/mol
same,Heat of fusion (ΔH),[1]; DSC 10° C./min,approximately 100 J/g
same,Enthalpy of fusion,"[1]; DSC 10° C./min, listed as I",6.12 kcal/mol
same,"Heat of fusion (ΔH), single analyses",[1],106 J/g and 102 J/g and 101 J/g
same,Enthalpy of fusion,[1]; [10],6.31 kcal/mol and 6.12 kcal/mol
same,Enthalpy of fusion,"[1]; DSC 50° C./min (average of three for Forms I and II), listed as I",6.31 kcal/mol
same,"Heat of fusion (ΔH), average",[1],103 J/g
same,% weight loss (at 150° C.),[2],0.5%
same,Sorption (5-95-5% RH),[3],0.2/0.2 weight %
same,Desorption (5-95-5% RH),[3],0.2/0.2 weight %
same,Thermodynamic stability relationship of forms,[6],thermodynamically stable crystal form
COc1cc(/C=C/c2ccc(O)cc2)cc(OC)c1 [Form V],% weight loss (at 150° C.),[2]; listed as V,0.4%
same,Sorption (5-95-5% RH),[3]; listed as V,0.8 weight %
same,Desorption (5-95-5% RH),[3]; listed as V,0.5 weight %
"COc1cc(/C=C/c2ccc(O)cc2)cc(OC)c1 [Pterostilbene, trans-3,5-dimethoxy-4′-hydroxystilbene]",Solubility in water,[7],poor
same,Bioavailability,[8],poor
COc1cc(/C=C/c2ccc(O)cc2)cc(OC)c1 [amorphous Pterostilbene],Physical stability of the amorphous form,[9],rapidly crystallized

# — patent US8524782B2, “Key intermediate for the preparation of Stilbenes, solid forms of Pterostilbene, and methods for making the same” (Laurus Labs Private Limited, priority 2008, dated 2013)
